# From US20070048247A1, “Deodorizing tablets” (Kimberly-Clark Worldwide, Inc., priority 2005, published 2007)
# Legend:
# [1] = Example 3 urine odor panel ranking; design: species or system Human; details: for Average Urine Odor Ranking (with statistical corrections), Avg. Score: ignoring statistical anomalies
# Description: (§1) The effectiveness of various quinone compounds in reducing urine odor was compared. […] Human female urine was initially collected and pooled by a nurse on staff at Kimberly-Clark Corporation. The pooled urine was added to mason jars in 50-milliliter aliquots using an automated pipette aid. […] The mason jars were placed in an incubator overnight at 37° C.
# (§2) In addition to ranking the jars from least to most malodorous (on a scale from 1 to 7, with 7 being the most malodors), panelists were also asked to judge whether there were secondary (non-urine) odors present and, if so, the extent that the secondary odors were unpleasant (on a scale from 1 to 5, with 5 being extremely unpleasant).
# In this assessment, panelists were given instructions to rank the least malodorous jar as “1” and the most malodorous jar as “10,” remaining free to rank the other jars between 2-9.
# [2] = Example 3 secondary (non-urine) odor ranking; design: species or system Human
# Description: as §1, §2
# [3] = Example 7 urine odor panel ranking (16 millimolar); design: species or system Human; details: 16 millimolar in urine, 1 least, 10 most urine malodor
# Description: The effectiveness of various quinone compounds in reducing urine odor was compared. […] Human female urine was initially collected and pooled at Kimberly-Clark Corporation. The pooled urine was added to mason jars in 50-milliliter aliquots using an automated pipette aid. Powders of the aforementioned quinone compounds (commercially available from Sigma-Aldrich Chemical Co., Inc. of St. Louis, Missouri and Noveon Hilton Davis, Inc. of Cincinnati, Ohio) were weighed and placed into the mason jars containing 50 milliliters of urine so that the final concentration of the powder was 16 millimolar (equivalent to 1 wt. %). The mason jars were placed in an incubator overnight at 37° C. The experimental setup is set forth in more detail below in Table 21.
# Jars were wrapped in foil and placed in an incubator at 37° C. overnight. The jars were divided into four groups (C-F), each sharing the same control jar of urine alone (no powder). Assessments were conducted the following day by asking panelists to rate each jar from 1 (least urine malodor) to 10 (most urine malodor).
# [4] = Solubility of powder in urine
# [5] = Example 6 urine odor panel ranking; design: species or system Human; details: as Example 5, 1 least, 8 most urine malodor
# Excerpt: The quinone compounds chosen for this example were Alizarin Blue Black B, Remazol Brilliant Blue R and Acid Green 25. The results are set forth below in Tables 19 and 20.
# [6] = Example 5 urine odor panel ranking; design: species or system Human
# Description: Assessments were conducted the following day by asking panelists to rate each jar from 1 (least urine malodor) to 8 (most urine malodor). The results are set forth below in Tables 15-18.
# [7] = Example 1 urine odor panel ranking; design: species or system Human; details: 8 millimolar in urine
# Excerpt: Human female urine was initially collected and pooled by a nurse on staff at Kimberly-Clark Corporation. […] Powders of Acid Blue 129 and Acid Green 27 (commercially available from Sigma-Aldrich Chemical Co., Inc. of St. Louis, Mo.), as well as D&C Green No. 5 (commercially available from Noveon Hilton Davis, Inc. of Cincinnati, Ohio), were then weighed and placed into the mason jars containing 50 milliliters of urine so that the final concentration of the powder was 8 millimolar (equivalent to 0.5 wt. %). […] A score of “10” was assigned to the most malodorous jar and a score of “1” was assigned to the least malodorous jar.
# [8] = Example 3 first grouping, 8 millimolar in urine, scale 1 to 7, 7 most malodorous
# [9] = Example 3 second grouping, 8 millimolar in urine, 1 least malodorous
# [10] = Example 5, 8 mM in 50 milliliters of urine
# [11] = Example 7, 16 mM in 50 milliliters of urine
# [12] = Example 5 Group B, 8 mM in urine, 1 least, 8 most urine malodor
# [13] = Example 3 top performers of both groupings, after 24 hours, 1 least, 10 most malodorous
# [14] = Example 3 top performers, after 24 hours
# [15] = Example 3 top performers, after 24 hours, 1 least, 10 most malodorous
# [16] = after 6 hours, 1 least, 10 most malodorous
# [17] = after 24 hours, 1 least, 10 most malodorous
# [18] = Example 5 Group A, 8 mM in urine, 1 least, 8 most urine malodor
structure (smiles),measurement,setting,value
"O=C1C=C(S(=O)(=O)[O-])c2ccccc2C1=O.[K+] [1,2 Naphthaquinone]",urine odor reduction (in words),[1]; Example 3 first grouping,effectively reduced urine odor
same,"Average Urine Odor Ranking, Avg. Score",[1]; [8],3.8
same,Urine Odor Ranking 2 (number of panelists),[1]; [8],1
same,Urine Odor Ranking 3 (number of panelists),[1]; [8],2
same,Urine Odor Ranking 4 (number of panelists),[1]; [8],1
same,Urine Odor Ranking 7 (number of panelists),[1]; [8],1
same,secondary odor (in words),[2]; Example 3 first grouping,unpleasant secondary smell was found to be present
"O=C1C=C(S(=O)(=O)[O-])C(=O)c2ccccc21.[K+] [1,4 Naphthaquinone, 1,4 naphthaquinone-2-sulfonic acid potassium salt]","Average Urine Odor Ranking, Avg. Score",[1]; [9],1.8
same,Urine Odor Ranking 1 (number of panelists),[1]; [9],2
same,Urine Odor Ranking 2 (number of panelists),[1]; [9],2
same,Urine Odor Ranking 3 (number of panelists),[1]; [9],1
same,secondary odor (in words),[2]; Example 3 second grouping,unpleasant secondary odor
Nc1cc(S(=O)(=O)[O-])c(O)c2c1C(=O)c1c(O)c(S(=O)(=O)[O-])cc(N)c1C2=O.[Na+].[Na+] [Acid Blue 45],"Average Rankings (Group E), Avg. Score",[3]; Example 7 Group E,6.4
same,Urine Odor Ranking 3 (number of panelists),[3]; Example 7 Group E,2
same,Urine Odor Ranking 8 (number of panelists),[3]; Example 7 Group E,2
same,Urine Odor Ranking 10 (number of panelists),[3]; Example 7 Group E,1
same,"Average Urine Odor Ranking, Avg. Score",[1]; [9],3.4
same,Urine Odor Ranking 2 (number of panelists),[1]; [9],1
same,Urine Odor Ranking 3 (number of panelists),[1]; [9],2
same,Urine Odor Ranking 4 (number of panelists),[1]; [9],1
same,Urine Odor Ranking 5 (number of panelists),[1]; [9],1
same,Soluble?,[4]; [10],Yes
same,Soluble?,[4]; [11],Mostly
same,"Average Rankings, Avg. Score",[5],5.5
same,Urine Odor Ranking 2 (number of panelists),[5],1
same,Urine Odor Ranking 6 (number of panelists),[5],1
same,Urine Odor Ranking 7 (number of panelists),[5],2
same,odor reduction performance (in words),[6]; Example 5 Group B,performed well
same,"Average Rankings (Group B), Avg. Score",[6]; [12],3.75
same,Urine Odor Ranking 1 (number of panelists),[6]; [12],2
same,Urine Odor Ranking 6 (number of panelists),[6]; [12],1
same,Urine Odor Ranking 7 (number of panelists),[6]; [12],1
Cc1cc(C)c(Nc2cc(S(=O)(=O)[O-])c(N)c3c2C(=O)c2ccccc2C3=O)c(C)c1.[Na+] [Acid Blue 129],"Average Rankings (Group E), Avg. Score",[3]; Example 7 Group E,6
same,Urine Odor Ranking 1 (number of panelists),[3]; Example 7 Group E,1
same,Urine Odor Ranking 4 (number of panelists),[3]; Example 7 Group E,1
same,Urine Odor Ranking 7 (number of panelists),[3]; Example 7 Group E,1
same,Urine Odor Ranking 9 (number of panelists),[3]; Example 7 Group E,2
same,"Average Urine Odor Ranking, Avg. Score",[1]; [9],1.8
same,Urine Odor Ranking 1 (number of panelists),[1]; [9],3
same,Urine Odor Ranking 3 (number of panelists),[1]; [9],2
same,Urine Odor Ranking 1 (number of panelists),[1]; [13],1
same,Urine Odor Ranking 3 (number of panelists),[1]; [13],1
same,Urine Odor Ranking 4 (number of panelists),[1]; [13],1
same,Urine Odor Ranking 5 (number of panelists),[1]; [13],1
same,Urine Odor Ranking 6 (number of panelists),[1]; [13],1
same,odor reduction (in words),[1]; [14],achieved the best odor reduction
same,"Average Urine Odor Ranking, Avg. Score",[1]; [15],3.8
same,"Average Urine Odor Ranking (with statistical corrections), Avg. Score",[1]; [14],3.8
same,Soluble?,[4]; [10],Mostly
same,Soluble?,[4]; [11],Somewhat
same,reducing urine malodor (in words),[7],functioned effectively in reducing urine malodor
same,Avg. Ranking (odor),[7]; [16],1.6
same,Ranking 1 (number of panelists),[7]; [16],4
same,Ranking 4 (number of panelists),[7]; [16],1
same,Avg. Ranking (odor),[7]; [17],1.3
same,Ranking 1 (number of panelists),[7]; [17],5
same,Ranking 3 (number of panelists),[7]; [17],1
same,odor reduction performance (in words),[6]; Example 5 Group B,performed well
same,"Average Rankings (Group B), Avg. Score",[6]; [12],5
same,Urine Odor Ranking 2 (number of panelists),[6]; [12],1
same,Urine Odor Ranking 5 (number of panelists),[6]; [12],1
same,Urine Odor Ranking 6 (number of panelists),[6]; [12],1
same,Urine Odor Ranking 7 (number of panelists),[6]; [12],1
Cc1ccc(Nc2ccc(Nc3ccc(C)cc3S(=O)(=O)[O-])c3c2C(=O)c2ccccc2C3=O)c(S(=O)(=O)[O-])c1.[Na+].[Na+] [Acid Green 25],"Average Rankings (Group F), Avg. Score",[3]; Example 7 Group F,3.2
same,Urine Odor Ranking 1 (number of panelists),[3]; Example 7 Group F,2
same,Urine Odor Ranking 2 (number of panelists),[3]; Example 7 Group F,1
same,Urine Odor Ranking 6 (number of panelists),[3]; Example 7 Group F,2
same,urine odor reduction (in words),[1]; Example 3 first grouping,functioned effectively to reduce odor
same,"Average Urine Odor Ranking, Avg. Score",[1]; [8],2.2
same,Urine Odor Ranking 1 (number of panelists),[1]; [8],3
same,Urine Odor Ranking 2 (number of panelists),[1]; [8],1
same,Urine Odor Ranking 6 (number of panelists),[1]; [8],1
same,"Average Urine Odor Ranking, Avg. Score",[1]; [9],4.4
same,Urine Odor Ranking 1 (number of panelists),[1]; [13],3
same,Urine Odor Ranking 2 (number of panelists),[1]; [13],1
same,Urine Odor Ranking 10 (number of panelists),[1]; [13],1
same,odor reduction (in words),[1]; [14],achieved the best odor reduction
same,"Average Urine Odor Ranking, Avg. Score",[1]; [15],3.0
same,"Average Urine Odor Ranking (with statistical corrections), Avg. Score",[1]; [14],1.3
same,secondary odor (in words),[2]; Example 3 first grouping,not found to be unpleasant by most panelists
same,Soluble?,[4]; [10],Yes
same,Soluble?,[4]; [11],Mostly
same,"Average Rankings, Avg. Score",[5],2.25
same,Urine Odor Ranking 1 (number of panelists),[5],2
same,Urine Odor Ranking 2 (number of panelists),[5],1
same,Urine Odor Ranking 5 (number of panelists),[5],1
same,"Average Rankings (Group A), Avg. Score",[6]; [18],3
same,Urine Odor Ranking 2 (number of panelists),[6]; [18],1
same,Urine Odor Ranking 3 (number of panelists),[6]; [18],2
same,Urine Odor Ranking 4 (number of panelists),[6]; [18],1
"O=C1c2ccccc2C(=O)c2c(Nc3cccc(S(=O)(=O)[O-])c3)c(Nc3ccc(S(=O)(=O)[O-])cc3)cc(O)c21.[Na+].[Na+] [Alizarin Blue Black B, Mordant Black 13 (Alizarin Blue Black B)]","Average Rankings (Group C), Avg. Score",[3]; Example 7 Group C,3
same,Urine Odor Ranking 1 (number of panelists),[3]; Example 7 Group C,1
same,Urine Odor Ranking 3 (number of panelists),[3]; Example 7 Group C,2
same,Urine Odor Ranking 4 (number of panelists),[3]; Example 7 Group C,2
same,Soluble?,[4]; [10],Yes
same,Soluble?,[4]; [11],Yes
same,"Average Rankings, Avg. Score",[5],2.75
same,Urine Odor Ranking 1 (number of panelists),[5],1
same,Urine Odor Ranking 3 (number of panelists),[5],2
same,Urine Odor Ranking 4 (number of panelists),[5],1
same,odor reduction performance (in words),[6]; Example 5 Group A,performed best
same,"Average Rankings (Group A), Avg. Score",[6]; [18],1
same,Urine Odor Ranking 1 (number of panelists),[6]; [18],4
"CCN(Cc1cccc(S(=O)(=O)[O-])c1)c1ccc(C(=C2C=CC(=[N+](CC)Cc3cccc(S(=O)(=O)[O-])c3)C=C2)c2ccccc2S(=O)(=O)[O-])cc1.[Na+].[Na+] [FD&C Blue No. 1, FD&C Blue No.1, reference compound]","Average Urine Odor Ranking, Avg. Score",[1]; [8],4.8
same,Urine Odor Ranking 4 (number of panelists),[1]; [8],1
same,Urine Odor Ranking 5 (number of panelists),[1]; [8],4
same,Secondary Odor Ranking,"[2]; Example 3 first grouping, individual panelist scores, scale 1 to 5, 5 extremely unpleasant",3
